In patent US7226949B2, “Compounds of use in the treatment of epilepsy, seizure, and electroconvulsive disorders” (University of Kentucky, priority 2002, dated 2007):

What was measured:
MES-induced seizure [1] = assay: Maximal Electroshock Seizure (MES) test in rats, oral administration; type: in vivo; conditions: for Percentage of rats in which the test compound prevented MES-induced seizure: 30 mg/kg oral; for Time to Peak Effect: MES test
Description: (§1) The Maximal Electroshock Seizure (MES) or Maximal Seizure Pattern Test
(§2) The MES is an experimental model for generalized tonic-clonic seizures that identifies compounds that prevent seizure spread. The MES model is highly reproducible and has a consistent endpoint. An advantage of this model is that the behavioral and electrographic seizures are consistent with those observed in humans.
(§3) In the MES test, the animal receives an electrical stimulus, 0.2 seconds in duration, via corneal electrodes primed with an electrolyte solution containing an anesthetic agent. The 0.2 second stimulation is generated with 150 mA in rats and 50 mA in mice at 60 Hz. […] In rats, the compound is administered orally, while mice receive the agent via intraperitoneal injection. The test endpoint, electrogenic seizure, is manifested as hindlimb tonic extension.
A full dose-response curve was also generated in rats to determine the ED50 value (n=8 at each time point). […] The ED50 of 4,4′-thiodianiline was evaluated in both rats and mice.

6 Hz seizures = assay: 6 Hz kindling model; type: in vivo, mice
Protocol: The 6 Hz kindling model is another experimental seizure model that effectively detects compounds with anti-seizure activity. This screen is used to evaluate the ability of a compound to prevent the acquisition of focal seizures; in particular, the capacity of a compound to prevent the development of seizures induced by a low-frequency (6 Hz), long duration (three seconds) stimulus in electrode […] is evaluated. Several of the most promising compounds were evaluated in this screen to further characterize their anti-seizure activity.
In the 6 Hz kindling test, mice are implanted with corneal electrodes. The test compound is administered (i.p.) to the animal at 0.25, 0.5, 1, 2, or 4 hours prior seizure induction. The seizure is initiated by delivering a current (32 mA at 6 Hz for three seconds) to the animal through the corneal electrodes. The resulting psychomotor seizure is usually characterized by a minimal clonic phase followed by stereotyped, automatistic behaviors. This response is analogous to the aura of human patients with partial seizures.

[2] = system: focal seizures in hippocampal kindled rats; assay: Hippocampal kindling model; type: in vivo, Sprague-Dawley rats; parameters: key to Racine Seizure Score ± SEM: Racine stage 1 to 5; conditions: for Afterdischarge Duration ± SEM / Racine Seizure Score ± SEM: rats, 100 mg/kg, n=7
Description: Hippocampal Kindling Model
The hippocampal kindling model is an experimental seizure model used to simulate focal seizures. This model evaluates the capacity of a compound to affect both the expression and acquisition of focal seizures. In addition, kindled seizures provide a methodology for studying complex brain networks that may contribute to the spread and generalizations of seizures from a focus. The hippocampal kindling model has the advantage of being one of the only kindling models that can evaluate the temporal effects of an agent in a single animal. For this assessment, bipolar electrodes are surgically implanted in the ventral hippocampus of adult male Sprague-Dawley rats (275-300 g) under ketamine-xylazine anesthesia. Following a one-week recovery period, stage five behavioral seizures are induced by stimulating the rat 12 times per day with 50 Hz, 10 s train of 1 ms biphasic 200 μA pulses delivered every 30 min for six hours on alternating days. After five stimulus days, the animal has had 60 stimulations. A drug free control period with supramaximal stimulations is used to verify the stability of a stage five generalized seizure before the anticonvulsant activity of a drug is measured.
This screen is used to measure the capacity of the drug to prevent the expression of focal seizures. […] The animal is exposed to an initial stimulation of 20 μA; the stimulation is increased in 10 μA increments every one-two minutes until an afterdischarge is recorded. After the stability of the stage five seizure is established, the drug candidate is administered to the rats via intraperitoneal injection 15 minutes after the last control stimulation. Starting with the first dose, the anticonvulsant activity of the test agent is measured every thirty minutes for four hours. Following each stimulation, Racine seizure scores and afterdischarge durations are compared to control values to quantify the anti-convulsant activity of the agent. The Racine seizure scores vary from stage 1 to 5. The stages are characterized according to the following criteria: Stage 1—mouth and facial clonus, Stage 2—stage 1 and head nodding, Stage 3—stage 2 and forelimb clonus, Stage 4—stage 3 and rearing, Stage 5—stage 4 and repeated rearing and falling. Since a single animal is used, each rat serves as its own control.
4,4′-Thiodianiline was used in the rat hippocampal kindled rats to screen to measure its anticonvulsant potential. Doses of 12.5, 25, 50 and 100 mg/kg were evaluated at a minimum of seven time points (n=7 for each dose and each time point). […] After oral administration of the test compound stimulation, the Racine seizure scores and afterdischarge durations were measured and are shown below. The Racine seizure scores dropped from between a stage 4 and stage 5 seizure for control measurements to between a stage 1 and stage 2 seizure after treatment with 4,4′-thiodianiline.

MES-induced seizure [3] = assay: Maximal Electroshock Seizure (MES) test in mice, intraperitoneal administration; type: in vivo
Description: as §1, §2, §3

rats = assay: Minimal neurotoxicity in rats, positional sense and gait and stance tests; type: in vivo
Description: If the rat experiences neurological toxicity, it will not be able to quickly lift its leg quickly back to a normal position.
In the gait and stance test, neurotoxicity is indicated by a circular or zigzag gait after administration of the test compound. In addition, ataxia, abnormal spread of the legs, abnormal posture, tremor hyperactivity, lack of exploratory behavior, somnolence, stupor, or catalepsy can indicate neurotoxicity.

mice = assay: Minimal neurotoxicity in mice, rotorod test
Protocol: In mice, the test compound is administered at doses of 30, and 100 mg/kg prior to evaluation in the toxicity screens. The mice are tested at 0.5 hours and 4 hours after intraperitoneal administration of the test compound.
Toxicity in mice weighing between 18 and 25.5 g is assessed using the standardized rotorod test [9]. For each compound tested, a minimum of 18 animals are evaluated for neurotoxicity. Control mice can maintain their equilibrium for an extended period of time when they are placed on a 6-rpm rotation rod. Neurologically impaired animals cannot maintain equilibrium for one minute in each of three successive trials.

[4] = 30 mg/kg i.p., 0.25 h after administration
[5] = 30 mg/kg i.p., 0.5 h after administration
[6] = 30 mg/kg i.p., 1.0 h after administration
[7] = 30 mg/kg i.p., 2.0 h after administration
[8] = 100 mg/kg i.p., 0.25 h after administration
[9] = 100 mg/kg i.p., 0.5 h after administration
[10] = 100 mg/kg i.p., 1.0 h after administration
[11] = 100 mg/kg i.p., 2.0 h after administration
[12] = 100 mg/kg i.p., 4.0 h after administration
[13] = 30 mg/kg i.p., 4.0 h after administration
[14] = 300 mg/kg i.p., 0.5 h after administration
[15] = 300 mg/kg i.p., 4.0 h after administration

Nc1ccc(Sc2ccc(N)cc2)cc1 [4,4′-thiodianiline] was tested, and the “Percentage of rats in which the test compound prevented MES-induced seizure” value (from here on “Percentage of rats”) (MES-induced seizure [1]; 0.25 h after administration) was 100%, the “Percentage of rats” value (MES-induced seizure [1]; 0.5 h after administration) was 100% and the “Percentage of rats” value (MES-induced seizure [1]; 1.0 h after administration) was 100%. For the same compound, the “Percentage of rats” value (MES-induced seizure [1]; 2.0 h after administration) was 100%, the “Percentage of rats” value (MES-induced seizure [1]; 4.0 h after administration) was 100% and the ED50 (MES-induced seizure [1]; Rattus norvegicus, po, read-out: ED50 required to inhibit MES-induced seizure) was 6.6 ± 5.07 mg/kg. For the same compound, the “Time to Peak Effect” value (MES-induced seizure [1]; rat, oral administration) was 1 h, the “Percentage of mice in which the test compound prevented seizure in the 6 Hz test” value (shortened to “Percentage of mice … in the 6 Hz test”) (6 Hz seizures; [4]) was 0% and the “Percentage of mice … in the 6 Hz test” value (6 Hz seizures; [5]) was 25%. The “Percentage of mice … in the 6 Hz test” value (6 Hz seizures; [6]) was 25%, the “Percentage of mice … in the 6 Hz test” value (6 Hz seizures; [7]) was 25% and the “Percentage of mice … in the 6 Hz test” value (6 Hz seizures; 80 mg/kg i.p., 0.25 h after administration) was 100%. The “Percentage of mice … in the 6 Hz test” value (6 Hz seizures; 80 mg/kg i.p., 0.5 h after administration) was 100%, the “Percentage of mice … in the 6 Hz test” value (6 Hz seizures; 80 mg/kg i.p., 1.0 h after administration) was 100% and the “Percentage of mice … in the 6 Hz test” value (6 Hz seizures; 80 mg/kg i.p., 2.0 h after administration) was 75%. The “Percentage of mice … in the 6 Hz test” value (6 Hz seizures; 80 mg/kg i.p., 4.0 h after administration) was 0%, the “Percentage of mice … in the 6 Hz test” value (6 Hz seizures; [8]) was 100% and the “Percentage of mice … in the 6 Hz test” value (6 Hz seizures; [9]) was 100%. The “Percentage of mice … in the 6 Hz test” value (6 Hz seizures; [10]) was 100%, the “Percentage of mice … in the 6 Hz test” value (6 Hz seizures; [11]) was 100% and the “Percentage of mice … in the 6 Hz test” value (6 Hz seizures; [12]) was 0%. The ED50 (6 Hz seizures; Mus musculus, ip, read-out: ED50 (6 Hz seizures)) was 30 to 80 mg/kg, the ED50 ([2]; Rattus norvegicus, hippocampal kindled rats, from doses of 12.5, 25, 50 and 100 mg/kg, read-out: ED50, dose required to prevent the expression of focal seizures) was 51.4 mg/kg and the “Afterdischarge Duration ± SEM” value ([2]; 15 min) was 19.14 ± 9.58 s. The “Racine Seizure Score ± SEM” value ([2]; 15 min) was 1.43 ± 0.81, the “Afterdischarge Duration ± SEM” value ([2]; 45 min) was 25.29 ± 13.71 s and the “Racine Seizure Score ± SEM” value ([2]; 45 min) was 1.29 ± 0.84. For the same compound, the “Afterdischarge Duration ± SEM” value ([2]; 75 min) was 24.86 ± 11.43 s, the “Racine Seizure Score ± SEM” value ([2]; 75 min) was 0.71 ± 0.57 and the “Afterdischarge Duration ± SEM” value ([2]; 105 min) was 33.29 ± 14.17 s. The “Racine Seizure Score ± SEM” value ([2]; 105 min) was 1.29 ± 0.64, the “Afterdischarge Duration ± SEM” value ([2]; 135 min) was 34.71 ± 14.35 s and the “Racine Seizure Score ± SEM” value ([2]; 135 min) was 1.57 ± 0.81. For the same compound, the “Afterdischarge Duration ± SEM” value ([2]; 165 min) was 57.43 ± 18.17 s, the “Racine Seizure Score ± SEM” value ([2]; 165 min) was 1.57 ± 0.65 and the “Afterdischarge Duration ± SEM” value ([2]; 195 min) was 55.29 ± 18.19 s. For the same compound, the “Racine Seizure Score ± SEM” value ([2]; 195 min) was 1.57 ± 0.69, the “Afterdischarge Duration ± SEM” value ([2]; 225 min) was 71.29 ± 18.99 s and the “Racine Seizure Score ± SEM” value ([2]; 225 min) was 1.86 ± 0.70. For the same compound, the “Afterdischarge Duration ± SEM” value ([2]; 255 min) was 65.43 ± 17.91 s, the “Racine Seizure Score ± SEM” value ([2]; 255 min) was 1.86 ± 0.63 and the “Percentage of mice in which the test compound prevented MES-induced seizure” value (MES-induced seizure [3]; [5]) was 0%. The “Percentage of mice in which the test compound prevented MES-induced seizure” value (MES-induced seizure [3]; [13]) was 0%, the “Percentage of mice in which the test compound prevented MES-induced seizure” value (MES-induced seizure [3]; [9]) was 66% and the “Percentage of mice in which the test compound prevented MES-induced seizure” value (MES-induced seizure [3]; [12]) was 100%. The “Percentage of mice in which the test compound prevented MES-induced seizure” value (MES-induced seizure [3]; [14]) was 100%, the “Percentage of mice in which the test compound prevented MES-induced seizure” value (MES-induced seizure [3]; [15]) was 100% and the ED50 (MES-induced seizure [3]; Mus musculus, ip, 0.5 h, read-out: ED50 (MES)) was 53.4 ± 14.9 mg/kg. For the same compound, the “ED50 for toxicity relative to ED50 for anti-convulsant activity” value (rats; 1 hour (time to peak effect) after oral administration) was roughly 60 times and the “acute neurotoxicity as measured by the rotorod test” value (mice; up to four hours after dosing, doses as high as 300 mg/kg) was “No acute neurotoxicity was observed”.

With Nc1ccc(Oc2ccc(N)cc2)cc1 [4,4′-diaminodiphenyl ether] the “Percentage of rats” value (MES-induced seizure [1]; 0.25 h after administration) was 100%, the “Percentage of rats” value (MES-induced seizure [1]; 0.5 h after administration) was 100% and the “Percentage of rats” value (MES-induced seizure [1]; 1.0 h after administration) was 75%. For the same compound, the “Percentage of rats” value (MES-induced seizure [1]; 2.0 h after administration) was 75%, the “Percentage of rats” value (MES-induced seizure [1]; 4.0 h after administration) was 100% and the “Time to Peak Effect” value (MES-induced seizure [1]; rat, oral administration) was 6 h. For the same compound, the “ED50 required to inhibit MES-induced seizure” value (MES-induced seizure [1]; rat, oral administration, at the time of peak effect, n=8) was 5.24 ± 4.67 mg/kg, the “Percentage of mice … in the 6 Hz test” value (6 Hz seizures; [4]) was 0% and the “Percentage of mice … in the 6 Hz test” value (6 Hz seizures; [5]) was 50%. The “Percentage of mice … in the 6 Hz test” value (6 Hz seizures; [6]) was 25%, the “Percentage of mice … in the 6 Hz test” value (6 Hz seizures; [7]) was 25% and the “Percentage of mice … in the 6 Hz test” value (6 Hz seizures; [8]) was 100%. For the same compound, the “Percentage of mice … in the 6 Hz test” value (6 Hz seizures; [9]) was 100%, the “Percentage of mice … in the 6 Hz test” value (6 Hz seizures; [10]) was 100% and the “Percentage of mice … in the 6 Hz test” value (6 Hz seizures; [11]) was 100%. The “Percentage of mice … in the 6 Hz test” value (6 Hz seizures; [12]) was 0%, the “expression of fully kindled seizures” value ([2]; hippocampal kindling model, not as effective as 4,4′-thiodianiline) was “had the capacity to block the expression of fully kindled seizures” and the “Percentage of mice in which the test compound prevented MES-induced seizure” value (MES-induced seizure [3]; [5]) was 0%. For the same compound, the “Percentage of mice in which the test compound prevented MES-induced seizure” value (MES-induced seizure [3]; [13]) was 0%, the “Percentage of mice in which the test compound prevented MES-induced seizure” value (MES-induced seizure [3]; [9]) was 100% and the “Percentage of mice in which the test compound prevented MES-induced seizure” value (MES-induced seizure [3]; [12]) was 100%. For the same compound, the “Percentage of mice in which the test compound prevented MES-induced seizure” value (MES-induced seizure [3]; [14]) was 100%, the “Percentage of mice in which the test compound prevented MES-induced seizure” value (MES-induced seizure [3]; [15]) was 100% and the toxicity (rats; 250 mg/kg) was “no significant toxicity”. For the same compound, the toxicity (mice; 100 mg/kg) was “no significant toxicity”.
